Laboratory results reported in patent US12331058B2, “SHP2 and CDK4/6 dual-target inhibitory compound and pharmaceutical composition containing the same” (CHINA PHARMACEUTICAL UNIVERSITY, priority 2021, dated 2025).
Like-named read-outs stand apart in the source and are kept apart here.

Columns and labels:
[1] = target: CDK4 (Homo sapiens, UniProt P11802); experiment: CDK4 enzyme activity test in vitro; assay type: biochemical; conditions: Caliper EZ Reader II conversion
Experimental: CDK4 Enzyme Activity Test In Vitro
(§7) The compound is dissolved in 100% DMSO to prepare into a 30 mM storage solution, which is stored in −20° C. refrigerator in the dark.
(1) 1×Kinase buffer is prepared.
(2) The preparation of concentration gradient of the compound: tested compound is tested at an initial concentration of 30000 nM according to a customer's request, diluted into a 100% DMSO solution at a 100-fold final concentration in a 384 source plate, diluted by 3-fold with 10 concentrations, 250 nL of compound with a 100-fold final concentration is transferred to the target plate of 384-well-plate by using a dispenser Echo 550.
(3) A Kinase solution with a 2.5-fold final concentration is prepared by using a 1×Kinase buffer.
(4) 10 μL of kinase solution with a 2.5-fold final concentration is added to the compound wells and the positive control wells, respectively; 10 μL of 1×Kinase buffer is added to the negative control wells.
(5) The kinase solution is centrifugated at 1000 rpm for 30 seconds, and incubated at the room temperature for 10 minutes after the reaction plate is shaken and mixed uniformly.
(7) The reaction is initiated by adding 15 μL of the mixed solution of ATP and substrate at a 5/3-fold final concentration.
(8) The 384-well plate is centrifuged at 1000 rpm for 30 seconds, and incubated at the room temperature for 180 minutes after shaking and mixing uniformly.
(9) The kinase reaction is terminated by adding 30 μL of termination detection solution, centrifuged at 1000 rpm for 30 seconds with shaking and mixing uniformly.
(10) The conversion is read by using Caliper EZ Reader II.
Calculation Formula is as follows:
Conversion %_sample denotes a conversion reading of the sample; Conversion % min denotes an average value for negative control wells, represents a conversion reading without enzyme wells; Convesion %_max denotes an average value for positive control wells, represents a conversion reading without compound inhibition wells.

[2] = test system: SHP2 and CDK4/6; experiment: In vitro enzyme activity and antiproliferative activity tests (summary statement)
[3] = test system: EMT6 cells; experiment: In vitro antiproliferative activity (MTT), EMT6; assay type: cell-based; conditions: Mus musculus, EMT6, 72 h, 3 days of incubation
Experimental: (§1) In Vitro Antiproliferative Activity of Compound 1. Experimental Procedure
(§2) (4) MDA-MB-231, MDA-MB-468 or EMT6 cells are taken out of a liquid nitrogen tank, immediately placed in a constant temperature water bath at 37° C. and melted by shaking, then the cells are poured into a culture flask. The culture solution (containing 10% of fetal bovine serum) is added for dilution. The diluted culture medium is transferred into a centrifuge tube, centrifuged at 1000 r/min for 5 minutes. The supernatant is discarded and fresh culture medium is added for blowing and mixing uniformly. The mixture is transferred into a culture bottle, and cultured in a culture box with a concentration of 5% CO2 at 37° C. When the cells are adhered to the wall and almost fully paved at the bottle bottom, the passage begins. A little amount of fresh culture medium (containing 10% of fetal calf serum) is added to terminate the digestion. The liquid in the culture bottle is poured out, and the culture bottle is washed twice with PBS. The fresh culture medium is added to blow and mix uniformly, and divided evenly into two culture bottles for continuing the culture.
(§3) (5) Cells in the logarithmic phase are taken, and the old culture medium are poured out. The trypsin solution is added for digestion for 3 minutes, and the fresh culture medium containing 10% of fetal bovine serum is added for terminating digestion. The solution is transferred into a centrifuge tube, centrifuged at 1000 r/min for 5 minutes, and the supernatant is discarded. The cells are counted by adding a medium to prepare into a cell suspension. After counting, cells are seeded in 96-well plates at a cell concentration of 5000-10000 cells per well. The 96-well plate with the spread cells is placed in a 5% CO2 incubator at 37° C. for a continuous culture for 24 hours. The drugs are diluted in gradient to 90μ mol/L, 30μ mol/L, 10μ mol/L, […], 0.37μ mol/L with medium and then added to 96-well plates at 100 μL per well, with three multiplex wells per concentration. The control group is added with medium containing solvent with the corresponding concentration, the zeroing hole is added with blank medium with the same volume, and the blank medium is placed in a culture box with 5% CO2 and 37° C. for 3 days of incubation with a replacement of the medium every two days. 20 μL of MTT (5 mg/mL) is added to each well. After mixing uniformly, the mixture is incubated in a 5% CO2 incubator at 37° C. for 4 hours in the absence of light. With a removement of the liquid in the 96-well plate and an addition of 150 μl of DMSO to each well, the mixture is placed on a micro-shaker and shaken to completely dissolve the crystals at the bottom. Subsequently, the 96-well plate is placed in an microplate reader for detection and the absorbance is measured at 490 nm.
(§4) Curve is drawn and inhibition rate of drug to cell and IC50 are calculated. Inhibition ratio=[(average OD value for control group-average OD value for experimental group)/(average OD value for control group-average OD value for blank control group)]×100%. 3. Experimental Results
(§5) The inhibitory activities of the compounds on MDA-MB-231, MDA-MB-468 and EMT6 cell lines are as follows: […]

[4] = test system: MDA-MB-468 cells; experiment: In vitro antiproliferative activity (MTT), MDA-MB-468; assay type: cell-based; conditions: Homo sapiens, MDA-MB-468, 72 h, 3 days of incubation
Experimental: as §1, §2, §3, §4, §5

[5] = target: T1, SHP2 (Homo sapiens, UniProt Q06124); experiment: SHP2 enzyme activity test in vitro;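 further: IC50 derived by variable-slope curve fitting of percent inhibition of SHP2 enzymatic activity plotted against log compound concentration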
T1 sequence (Q06124 1-593): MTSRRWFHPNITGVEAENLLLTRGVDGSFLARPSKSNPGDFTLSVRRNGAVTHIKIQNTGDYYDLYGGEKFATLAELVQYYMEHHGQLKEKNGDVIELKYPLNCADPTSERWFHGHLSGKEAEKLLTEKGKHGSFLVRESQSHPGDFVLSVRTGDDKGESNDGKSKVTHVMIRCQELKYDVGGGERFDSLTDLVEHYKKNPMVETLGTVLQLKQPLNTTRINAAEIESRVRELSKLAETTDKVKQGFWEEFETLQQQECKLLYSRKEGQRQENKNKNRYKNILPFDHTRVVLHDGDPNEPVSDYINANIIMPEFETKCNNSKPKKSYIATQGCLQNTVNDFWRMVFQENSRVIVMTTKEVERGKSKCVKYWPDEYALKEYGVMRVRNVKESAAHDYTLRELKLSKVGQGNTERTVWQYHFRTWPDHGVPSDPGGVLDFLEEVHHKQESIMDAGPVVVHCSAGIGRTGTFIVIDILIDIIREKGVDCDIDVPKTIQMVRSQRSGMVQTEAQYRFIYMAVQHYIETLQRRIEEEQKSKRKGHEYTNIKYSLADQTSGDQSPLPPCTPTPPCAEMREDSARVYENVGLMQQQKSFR
Experimental: SHP2 Enzyme Activity Test In Vitro
SHP2 enzyme activity of the compounds in the above examples are tested as follows.
as §7
The log value for concentration is taken as X-axis and the percent inhibition is taken as Y-axis, and the log (inhibitor) vs. response variable slope of the analysis software GraphPad Prism 5 is used to fit the dose-response curve to obtain the IC50 values for each compound on enzyme activity.

[6] = test system: MDA-MB-231 cells; experiment: In vitro antiproliferative activity (MTT), MDA-MB-231; assay type: cell-based; conditions: Homo sapiens, MDA-MB-231, 72 h, 3 days of incubation
Experimental: as §1, §2, §3, §4, §5

[7] = test system: MDA-MB-231 cells; experiment: Cell cycle experiment (PI flow cytometry), MDA-MB-231; assay type: cell-based; conditions: MDA-MB-231, 48 hours, compared with TNO155, Abemaciclib and their combination
Experimental: (§6) Cells are washed once with PBS and 1 mL of trypsin without EDTA (0.25%) is added. When cells change round and part of the cells are suspended, the digestion is terminated by adding PBS, subsequently, the cells are harvested and fixed in 70% ethanol (500 μL) at 4° C. for 24 hours. Cells are collected by washing with PBS and centrifuged at 1500 rpm for 5 minutes, then stained with PI/RNase in the dark at the room temperature for 30 minutes-60 minutes. After incubation, the cells are analyzed by flow cytometry. All experiments are performed 3 times.

[8] = test system: MDA-MB-468 cells; experiment: Cell cycle experiment (PI flow cytometry), MDA-MB-468; assay type: cell-based; conditions: MDA-MB-468, 48 hours, compared with TNO155, Abemaciclib and their combination
Experimental: as §6

Sequence of CDK4 (P11802 whole entry): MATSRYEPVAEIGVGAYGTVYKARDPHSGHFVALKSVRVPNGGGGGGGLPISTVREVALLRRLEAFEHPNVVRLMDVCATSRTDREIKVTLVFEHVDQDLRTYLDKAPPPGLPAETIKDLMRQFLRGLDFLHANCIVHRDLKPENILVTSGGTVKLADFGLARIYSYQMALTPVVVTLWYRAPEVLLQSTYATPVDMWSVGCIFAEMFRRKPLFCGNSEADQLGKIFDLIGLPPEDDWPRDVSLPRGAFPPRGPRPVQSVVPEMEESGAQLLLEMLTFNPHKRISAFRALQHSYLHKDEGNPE
Sequence of CDK4 (P30281 whole entry partner): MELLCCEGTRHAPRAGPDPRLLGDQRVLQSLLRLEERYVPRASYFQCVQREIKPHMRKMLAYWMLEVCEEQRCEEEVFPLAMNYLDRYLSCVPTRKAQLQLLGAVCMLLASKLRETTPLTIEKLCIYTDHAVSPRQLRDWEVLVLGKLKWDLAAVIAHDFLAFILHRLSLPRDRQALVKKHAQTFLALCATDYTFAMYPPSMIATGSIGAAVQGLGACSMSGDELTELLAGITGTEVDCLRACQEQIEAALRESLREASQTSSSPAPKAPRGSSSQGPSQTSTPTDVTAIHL

IC50 [1] | IC50 [4] | IC50 [5] | IC50 [6] | Structure (SMILES) | IC50 [3] | further results
8 nM | 9.1 µM | 15 nM | 4.6 µM | Cc1nc2c(F)cc(-c3nc(Nc4cccc(Sc5cnc(N6CCC7(CC6)CO[C@@H](C)[C@H]7N)cn5)c4Cl)ncc3F)cc2n1C(C)C [Compound 25] | 0.6 µM | double-target inhibition activity [2]: better double-target inhibition activity
538 nM |  | 36 nM |  | CN(C)C(=O)c1cc2cnc(Nc3ccc(Sc4cnc(N5CCC6(CC5)Cc5ccccc5[C@H]6N)cn4)c(Cl)n3)nc2n1C1CCCC1 [Compound 9] |  | 
3 nM | 3.7 µM | 9 nM | 9.6 µM | Cc1nc2c(F)cc(-c3nc(Nc4nccc(Sc5cnc(N6CCC7(CC6)CO[C@@H](C)[C@H]7N)cn5)c4C#N)ncc3F)cc2n1C(C)C [Compound 19] | 0.7 µM | double-target inhibition activity [2]: better double-target inhibition activity
 | 10.5 µM |  | 3.2 µM | Cc1nc2c(F)cc(-c3nc(Nc4ccc(Sc5cnc(N6CCC7(CC6)CO[C@@H](C)[C@H]7N)cn5)c(Cl)c4)ncc3F)cc2n1C(C)C [Compound 23] | 1.7 µM | double-target inhibition activity [2]: better double-target inhibition activity; IC50 ([5]; read-out: SHP2 IC50, fluorescence Ex355/Em460, activation peptide): 61 nM
19 nM | 1.8 µM | 5 nM | 6.4 µM | Cc1nc2c(F)cc(-c3nc(Nc4nccc(Sc5cnc(N6CCC7(CC6)CO[C@@H](C)[C@H]7N)cn5)c4Cl)ncc3F)cc2n1C(C)C [Compound 14] | 0.6 µM | G0/G1 phase arrest [7]: better cycle G0/G1 phase arrest; double-target inhibition activity [2]: better double-target inhibition activity; G0/G1 phase arrest [8]: better cycle G0/G1 phase arrest
905 nM |  | > 1000 nM |  | CN(C)C(=O)c1cc2cnc(Nc3nccc(Sc4cnc(N5CCN([C@H]6Cc7ccccc7[C@H]6N)CC5)cn4)c3Cl)nc2n1C1CCCC1 [Compound 8] |  | 
435 nM |  | 30 nM |  | CN(C)C(=O)c1cc2cnc(Nc3nccc(Sc4cnc(N5CCC(C)(N)CC5)cn4)c3Cl)nc2n1C1CCCC1 [Compound 4] |  | 
> 1000 nM |  | 57 nM |  | CN(C)C(=O)c1cc2cnc(Nc3ccc(Sc4cnc(N5CCC6(CC5)Cc5ccccc5[C@H]6N)cn4)c(Cl)c3)nc2n1C1CCCC1 [Compound 3] |  | 
11 nM |  | 216 nM |  | Cc1nc2c(F)cc(-c3nc(Nc4cnc(Sc5cnc(N6CCC7(CC6)CO[C@@H](C)[C@H]7N)cn5)c(Cl)c4)ncc3F)cc2n1C(C)C [Compound 13] |  | 
 |  | > 1000 nM |  | CN(C)C(=O)c1cc2cnc(Nc3ccc(Sc4cnc(N5CCC(C)(N)CC5)cn4)c(Cl)n3)nc2n1C1CCCC1 [Compound 16] |  | 
123 nM |  | 598 nM |  | Cc1nc2c(F)cc(-c3nc(Nc4ccc(Cl)c(Sc5cnc(N6CCC7(CC6)CO[C@@H](C)[C@H]7N)cn5)n4)ncc3F)cc2n1C(C)C [Compound 20] |  | 
 | > 20 µM |  | > 20 µM | C[C@@H]1OCC2(CCN(c3cnc(Sc4ccnc(N)c4Cl)c(N)n3)CC2)[C@@H]1N [TNO155, reference compound] | 7 µM | 
> 1000 nM |  | 736 nM |  | CN(C)C(=O)c1cc2cnc(Nc3nccc(Sc4cnc(N5CC[C@H](N)c6ccccc6C5)cn4)c3Cl)nc2n1C1CCCC1 [Compound 6] |  | 
9 nM |  | > 1000 nM |  | CN(C)C(=O)c1cc2cnc(Nc3ccc(Sc4cnc(N5CCC(C)(N)CC5)cn4)cn3)nc2n1C1CCCC1 [Compound 2] |  | 
> 1000 nM |  | > 1000 nM |  | Cc1nc2c(F)cc(-c3nc(Nc4ccc(Sc5cnc(N6CCC7(CC6)Cc6ccccc6[C@H]7N)cn5)c(Cl)n4)ncc3F)cc2n1C(C)C [Compound 24] |  | 
9 nM |  | > 1000 nM |  | Cc1nc2c(F)cc(-c3nc(Nc4cc(Cl)c(Sc5cnc(N6CCC7(CC6)CO[C@@H](C)[C@H]7N)cn5)cn4)ncc3F)cc2n1C(C)C [Compound 21] |  | 
145 nM |  | > 1000 nM |  | Cc1nc2c(F)cc(-c3nc(Nc4ccc(Sc5cnc(N6CCC7(CC6)CO[C@@H](C)[C@H]7N)cn5)c(Cl)n4)ncc3F)cc2n1C(C)C [Compound 15] |  | 
 | > 20 µM |  | > 20 µM | CCN1CCN(Cc2ccc(Nc3ncc(F)c(-c4cc(F)c5nc(C)n(C(C)C)c5c4)n3)nc2)CC1 [Abemaciclib, reference compound] | 4.2 µM | 
> 1000 nM |  | > 1000 nM |  | CN(C)C(=O)c1cc2cnc(Sc3cnc(N4CCC(C)(N)CC4)cn3)cc2n1C1CCCC1 [Compound 1] |  | 
141 nM |  | > 1000 nM |  | Cc1nc2c(F)cc(-c3nc(Nc4ccc(Sc5cnc(N6CCC7(CC6)CO[C@@H](C)[C@H]7N)cn5)c(C#N)n4)ncc3F)cc2n1C(C)C [Compound 12] |  | 
17 nM | 9.6 µM | 48 nM | 5.1 µM | Cc1nc2c(F)cc(-c3nc(Nc4cc(Sc5cnc(N6CCC7(CC6)CO[C@@H](C)[C@H]7N)cn5)ccn4)ncc3F)cc2n1C(C)C [Compound 26] | 1.1 µM | double-target inhibition activity [2]: better double-target inhibition activity
> 1000 nM |  | > 1000 nM |  | CN(C)C(=O)c1cc2cnc(N(c3ncc4cc(C(=O)N(C)C)n(C5CCCC5)c4n3)c3nccc(Sc4cnc(N5CC[C@H](N)c6ccccc6C5)cn4)c3Cl)nc2n1C1CCCC1 [Compound 7] |  | 
> 1000 nM |  | 4 nM |  | CN(C)C(=O)c1cc2cnc(Nc3nccc(Sc4cnc(N5CCC6(CC5)Cc5ccccc5[C@H]6N)cn4)c3Cl)nc2n1C1CCCC1 [Compound 5] |  | 
31 nM |  | > 1000 nM |  | Cc1nc2c(F)cc(-c3nc(Nc4ccc(Sc5cnc(N6CCC(C)(N)CC6)cn5)c(C#N)n4)ncc3F)cc2n1C(C)C [Compound 11] |  | 
> 1000 nM |  | > 1000 nM |  | Cc1nc2c(F)cc(-c3nc(Nc4cc(Sc5cnc(N6CCC7(CC6)CO[C@@H](C)[C@H]7N)cn5)c(Cl)cn4)ncc3F)cc2n1C(C)C [Compound 17] |  | 
 | 5.9 µM | 10 nM | 4.4 µM | Cc1nc2c(F)cc(-c3nc(Nc4nccc(Sc5cnc(N6CCC7(CC6)Cc6ccccc6[C@H]7N)cn5)c4Cl)ncc3F)cc2n1C(C)C [Compound 10] | 1.1 µM | double-target inhibition activity [2]: better double-target inhibition activity
